Results on 22 compounds are retold here after US8309734B2 (Hoffmann-La Roche Inc., priority 2008, dated 2012).

In this experiment the target is T1, human GPBAR1 receptor (Homo sapiens, UniProt Q8TDU6).
T1 construct: expressed in transfected cells
T1 sequence (Q8TDU6 1-330): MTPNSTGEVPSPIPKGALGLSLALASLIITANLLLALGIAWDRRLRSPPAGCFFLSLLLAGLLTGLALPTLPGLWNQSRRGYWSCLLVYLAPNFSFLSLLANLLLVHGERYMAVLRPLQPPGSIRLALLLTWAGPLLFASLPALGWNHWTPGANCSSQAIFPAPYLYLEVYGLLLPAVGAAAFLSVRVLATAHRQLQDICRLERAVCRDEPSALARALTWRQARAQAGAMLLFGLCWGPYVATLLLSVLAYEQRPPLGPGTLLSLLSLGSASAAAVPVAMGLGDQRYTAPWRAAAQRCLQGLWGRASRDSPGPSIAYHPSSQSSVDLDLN
The experiment is described as follows: functional cAMP assay in CHO-dhfr(minus) cells expressing human GPBAR1 receptors. It is filed as cell-based. Conditions: cAMP increase (TR-FRET) in CHO-dhfr(minus) cells expressing human GPBAR1; compounds incubated 30 min at 30° C. For orientation: Changes in cAMP serve as a functional read-out for many G protein-coupled receptors.
One may read the EC50 as the concentration needed to bring the measured effect to its halfway point. A low value points to greater potency. Compound `CC(CN1CCN(C(=O)c2cc(F)cnc2Oc2cc(Cl)ccc2Cl)c2ccccc21)C(=O)O` (stereo not shown) [Example 157, 3-{4-[2-(2,5-Dichloro-phenoxy)-5-fluoro-pyridine-3-carbonyl]-3,4-dihydro-2H-quinoxalin-1-yl}-2-methyl-propionic acid] gave an EC50 of 1680 nM. This lies in the single-digit micromolar range.

As to `CCOC(=O)CCCN1CCN(C(=O)c2cc(F)cnc2Oc2cc(Cl)ccc2Cl)c2ccccc21` [Example 158, 4-{4-[2-(2,5-Dichloro-phenoxy)-5-fluoro-pyridine-3-carbonyl]-3,4-dihydro-2H-quinoxalin-1-yl}-butyric acid ethyl ester], it took 384 nM to reach a half-maximal effect (EC50).

As for `CCOC(=O)CCCCN1CCN(C(=O)c2cc(F)cnc2Oc2cc(Cl)ccc2Cl)c2ccccc21` [Example 159, 5-{4-[2-(2,5-Dichloro-phenoxy)-5-fluoro-pyridine-3-carbonyl]-3,4-dihydro-2H-quinoxalin-1-yl}-pentanoic acid ethyl ester], the EC50 amounted to 395 nM.

Take `COC(=O)CCCCCN1CCN(C(=O)c2cc(F)cnc2Oc2cc(Cl)ccc2Cl)c2ccccc21` [Example 160, 6-{4-[2-(2,5-Dichloro-phenoxy)-5-fluoro-pyridine-3-carbonyl]-3,4-dihydro-2H-quinoxalin-1-yl}-hexanoic acid methyl ester]: a half-maximal response (EC50) required 724 nM.

`O=C(O)CCCCCN1CCN(C(=O)c2cc(F)cnc2Oc2cc(Cl)ccc2Cl)c2ccccc21` [Example 161, 6-{4-[2-(2,5-Dichloro-phenoxy)-5-fluoro-pyridine-3-carbonyl]-3,4-dihydro-2H-quinoxalin-1-yl}-hexanoic acid] came in with a concentration for a half-maximal effect (EC50) of 104 nM.

`COC(=O)c1ccc(C(=O)N2CCN(C(=O)c3cc(F)cnc3Oc3cc(Cl)ccc3Cl)c3ccccc32)cc1` [Example 162, 4-{4-[2-(2,5-Dichloro-phenoxy)-5-fluoro-pyridine-3-carbonyl]-3,4-dihydro-2H-quinoxaline-1-carbonyl}-benzoic acid methyl ester] yielded an EC50 of 1160 nM. This EC50 is about 11-fold higher than that of the compound before.

`O=C(c1cccnc1Oc1cc(Cl)c(Br)cc1Cl)N1CCN(C2CC2)c2ccccc21` [Example 163, [2-(4-Bromo-2,5-dichloro-phenoxy)-pyridin-3-yl]-(4-cyclopropyl-3,4-dihydro-2H-quinoxalin-1-yl)-methanone] came in with an EC50 of 54 nM.

In turn, `O=C(c1cccnc1Oc1cc(Cl)c(C#CCO)cc1Cl)N1CCN(C2CC2)c2ccccc21` [Example 164, (4-Cyclopropyl-3,4-dihydro-2H-quinoxalin-1-yl)-{2-[2,5-dichloro-4-(3-hydroxy-prop-1-ynyl)-phenoxy]-pyridin-3-yl}-methanone] showed an EC50 of 36 nM.

`O=C(c1cccnc1Oc1cc(Cl)c(Br)cc1Cl)N1CCCc2ccccc21` [Example 165, [2-(4-Bromo-2,5-dichloro-phenoxy)-pyridin-3-yl]-(3,4-dihydro-2H-quinolin-1-yl)-methanone] had a half-maximal effective concentration (EC50) of 340 nM.

For the compound `COC(=O)CCC#Cc1cc(Cl)c(Oc2ncccc2C(=O)N2CCCc3ccccc32)cc1Cl` [Example 166, 5-{2,5-Dichloro-4-[3-(3,4-dihydro-2H-quinoline-1-carbonyl)-pyridin-2-yloxy]-phenyl}-pent-4-ynoic acid methyl ester], the EC50 is 148 nM.

`COC(=O)c1ccc(C#Cc2cc(Cl)c(Oc3ncccc3C(=O)N3CCN(C4CC4)c4ccccc43)cc2Cl)cc1Cl` [Example 167, 2-Chloro-4-{2,5-dichloro-4-[3-(4-cyclopropyl-3,4-dihydro-2H-quinoxaline-1-carbonyl)-pyridin-2-yloxy]-phenylethynyl}-benzoic acid methyl ester] had an EC50 of 211 nM.

`O=C(O)c1ccc(C#Cc2cc(Cl)c(Oc3ncccc3C(=O)N3CCN(C4CC4)c4ccccc43)cc2Cl)cc1Cl` [Example 168, 2-Chloro-4-{2,5-dichloro-4-[3-(4-cyclopropyl-3,4-dihydro-2H-quinoxaline-1-carbonyl)-pyridin-2-yloxy]-phenylethynyl}-benzoic acid] had an EC50 of 1440 nM.

The compound `O=C(O)c1ccc(CCc2cc(Cl)c(Oc3ncccc3C(=O)N3CCN(C4CC4)c4ccccc43)cc2Cl)cc1Cl` [Example 169, 2-Chloro-4-(2-{2,5-dichloro-4-[3-(4-cyclopropyl-3,4-dihydro-2H-quinoxaline-1-carbonyl)-pyridin-2-yloxy]-phenyl}-ethyl)-benzoic acid] registered an EC50 of 127 nM.

`O=C(O)c1ccc(CCc2cc(Cl)c(Oc3ncccc3C(=O)N3CCN(C4CC4)c4ccccc43)cc2Cl)cc1` [Example 170, 4-(2-{2,5-Dichloro-4-[3-(4-cyclopropyl-3,4-dihydro-2H-quinoxaline-1-carbonyl)-pyridin-2-yloxy]-phenyl}-ethyl)-benzoic acid] yielded an EC50 of 69 nM.

In the case of `COc1cc(C(=O)O)ccc1CCc1cc(Cl)c(Oc2ncccc2C(=O)N2CCN(C3CC3)c3ccccc32)cc1Cl` [Example 171, 4-(2-{2,5-Dichloro-4-[3-(4-cyclopropyl-3,4-dihydro-2H-quinoxaline-1-carbonyl)-pyridin-2-yloxy]-phenyl}-ethyl)-3-methoxy-benzoic acid], a half-maximal response (EC50) required 102 nM.

Compound `O=C(O)/C=C/c1cc(Cl)c(Oc2ncccc2C(=O)N2CCN(C3CC3)c3ccccc32)cc1Cl` [Example 172, 3-{2,5-Dichloro-4-[3-(4-cyclopropyl-3,4-dihydro-2H-quinoxaline-1-carbonyl)-pyridin-2-yloxy]-phenyl}-acrylic acid] had an EC50 of 132 nM.

Compound `O=C(O)CCc1cc(Cl)c(Oc2ncccc2C(=O)N2CCN(C3CC3)c3ccccc32)cc1Cl` [Example 173, 3-{2,5-Dichloro-4-[3-(4-cyclopropyl-3,4-dihydro-2H-quinoxaline-1-carbonyl)-pyridin-2-yloxy]-phenyl}-propionic acid] came in with an EC50 of 47 nM.

Take `COC(=O)C/C=C/c1cc(Cl)c(Oc2ncccc2C(=O)N2CCN(C3CC3)c3ccccc32)cc1Cl` [Example 174, 4-{2,5-Dichloro-4-[3-(4-cyclopropyl-3,4-dihydro-2H-quinoxaline-1-carbonyl)-pyridin-2-yloxy]-phenyl}-but-3-enoic acid methyl ester]: the EC50 is 29 nM.

For `O=C(O)C/C=C/c1cc(Cl)c(Oc2ncccc2C(=O)N2CCN(C3CC3)c3ccccc32)cc1Cl` [Example 175, 4-{2,5-Dichloro-4-[3-(4-cyclopropyl-3,4-dihydro-2H-quinoxaline-1-carbonyl)-pyridin-2-yloxyl]-phenyl}-but-3-enoic acid], the EC50 was 843 nM.

With `O=C(O)CCCc1cc(Cl)c(Oc2ncccc2C(=O)N2CCN(C3CC3)c3ccccc32)cc1Cl` [Example 176, 4-{2,5-Dichloro-4-[3-(4-cyclopropyl-3,4-dihydro-2H-quinoxaline-1-carbonyl)-pyridin-2-yloxy]-phenyl}-butyric acid], the midpoint of the response, the EC50, lay at 114 nM.

`O=C(O)CNC(=O)CCc1cc(Cl)c(Oc2ncccc2C(=O)N2CCN(C3CC3)c3ccccc32)cc1Cl` [Example 177, (3-{2,5-Dichloro-4-[3-(4-cyclopropyl-3,4-dihydro-2H-quinoxaline-1-carbonyl)-pyridin-2-yloxy]-phenyl}-propionylamino)-acetic acid] had an EC50 of 63 nM.

`CN(CC(=O)O)C(=O)CCc1cc(Cl)c(Oc2ncccc2C(=O)N2CCN(C3CC3)c3ccccc32)cc1Cl` [Example 178, [(b 3-{2,5-Dichloro-4-[3-(4-cyclopropyl-3,4-dihydro-2H-quinoxaline-1-carbonyl)-pyridin-2-yloxy]-phenyl}-propionyl)-methyl-amino]-acetic acid]: the EC50 amounted to 96 nM.
